From PubChem BioAssay (NCI) come the findings set out here.

Some test systems named below: A498 renal; BT-549 breast; CCRF-CEM leukemia; EKVX NSCLC; IGROV1 ovarian; MDA-MB-435; NCI-H23 lung; NCI/ADR-RES ovarian; SF-539 CNS; SK-MEL-5 melanoma.
Assay in all cases: inhibition of tumour cell growth, NCI panel, 48 h

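Dose response: 5 concentrations. Exposure: 48 h. Format: 96-well plates. Endpoint: linear interpolation; highest concentration if not reached. GI50: concentration for 50% inhibition of growth. TGI denotes the concentration required for complete inhibition of growth.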

On to `COc1cccc2c(Nc3ccc(C(=O)NCCN(C)C)cc3)cc(-c3ccccc3)nc12`, for which the GI50 in the assay on A498 renal was 17.2 µM; with BT-549 breast, 20.3 µM; with CCRF-CEM leukemia it was 8.86 µM; with EKVX NSCLC it was 27 µM; in the assay with IGROV1 ovarian, 10.8 µM; with MDA-MB-435, 22 µM. For the same compound, the GI50 with NCI-H23 lung was 20.3 µM; in the assay with NCI/ADR-RES ovarian, 18.3 µM; in the assay with SF-539 CNS it was 19.1 µM; in the assay with SK-MEL-5 melanoma, 17.3 µM. Further, the TGI in the assay with A498 renal came out at 32 µM; with BT-549 breast it was 44.8 µM; in the assay on CCRF-CEM leukemia, 33.2 µM; in the assay on EKVX NSCLC, 81.4 µM; in the assay on IGROV1 ovarian it was 25.6 µM; with MDA-MB-435, 39.1 µM. Besides, the TGI amounted to 45.6 µM in the assay with NCI-H23 lung, 42.9 µM in the assay on NCI/ADR-RES ovarian, 37.1 µM in the assay on SF-539 CNS and 32.1 µM in the assay with SK-MEL-5 melanoma.
Turning to `Clc1ccc(-c2cn(-c3ccccc3)c(-c3ccccc3)n2)c(Cl)c1`, the GI50 in the assay with A498 renal is 12.6 µM; in the assay on BT-549 breast, 3.42 µM; in the assay with CCRF-CEM leukemia, 2.51 µM; with EKVX NSCLC, > 18.5 µM; in the assay on IGROV1 ovarian, 2.92 µM; in the assay on MDA-MB-435, 1.69 µM. For the same compound, the GI50 in the assay with NCI-H23 lung is > 16.2 µM; with NCI/ADR-RES ovarian, 3.51 µM; in the assay with SF-539 CNS, 2.2 µM; in the assay on SK-MEL-5 melanoma, 48.5 µM. Also, the TGI is > 45.1 µM with A498 renal; > 50 µM with BT-549 breast; > 50 µM with CCRF-CEM leukemia; > 50 µM with EKVX NSCLC; > 44.8 µM in the assay with IGROV1 ovarian; 10.1 µM with MDA-MB-435. For the same compound, the TGI with NCI-H23 lung was > 50 µM; in the assay with NCI/ADR-RES ovarian, > 44.9 µM; in the assay on SF-539 CNS it was > 50 µM; with SK-MEL-5 melanoma it was > 50 µM.
Regarding `CCOC(=O)c1cnc2c(cnn2CC)c1NN=C(C)C`, the GI50 was 28.1 µM in the assay on A498 renal; 46.5 µM in the assay with BT-549 breast; 78.3 µM in the assay with CCRF-CEM leukemia; 20.6 µM with EKVX NSCLC; 38.3 µM in the assay on IGROV1 ovarian; 78.2 µM in the assay on MDA-MB-435. The GI50 with NCI-H23 lung was > 100 µM; in the assay with NCI/ADR-RES ovarian, 38 µM; with SF-539 CNS, 74.9 µM; in the assay on SK-MEL-5 melanoma it was 33.1 µM. The TGI with A498 renal, with BT-549 breast, in the assay on CCRF-CEM leukemia, in the assay with EKVX NSCLC, in the assay with IGROV1 ovarian and in the assay on MDA-MB-435 was > 100 µM in each case. The TGI in the assay with NCI-H23 lung, with NCI/ADR-RES ovarian, with SF-539 CNS and in the assay on SK-MEL-5 melanoma was > 100 µM in each case.
On to `N#CC(=S)Nc1ccc(F)cc1`, for which the TGI in the assay with A498 renal was 90.5 µM; in the assay with BT-549 breast it was > 100 µM; with CCRF-CEM leukemia, 54.9 µM; in the assay on EKVX NSCLC, > 100 µM; in the assay on IGROV1 ovarian it was > 100 µM; with MDA-MB-435, > 100 µM. In addition, the TGI with NCI-H23 lung is > 100 µM; in the assay on NCI/ADR-RES ovarian it was > 100 µM; with SF-539 CNS, > 100 µM; in the assay with SK-MEL-5 melanoma, 75.8 µM.
As to `CCCCC#Cc1cccc(=O)o1`, the GI50 in the assay with A498 renal was 9.83 µM; in the assay with BT-549 breast, > 100 µM; with CCRF-CEM leukemia it was 20.3 µM; in the assay on EKVX NSCLC, 12.4 µM; with IGROV1 ovarian it was 79.5 µM; in the assay on MDA-MB-435 it was 15 µM. For the same compound, the GI50 is 8.98 µM in the assay with NCI-H23 lung, 9.46 µM in the assay with NCI/ADR-RES ovarian, > 100 µM with SF-539 CNS and 3.71 µM in the assay with SK-MEL-5 melanoma. Moreover, the TGI with A498 renal is 66.1 µM; in the assay with BT-549 breast, > 100 µM; in the assay on CCRF-CEM leukemia, > 100 µM; with EKVX NSCLC, > 100 µM; with IGROV1 ovarian, > 100 µM; in the assay with MDA-MB-435, > 100 µM. Besides, the TGI is > 100 µM in the assay with NCI-H23 lung, > 100 µM in the assay with NCI/ADR-RES ovarian, > 100 µM with SF-539 CNS and 26.6 µM with SK-MEL-5 melanoma.
On to `Oc1ccc(-c2nc3ccc4[nH]ncc4c3c3c2CCCC3)c2cccnc12`, for which the GI50 in the assay on A498 renal is 0.779 µM; with BT-549 breast it was 0.421 µM; with CCRF-CEM leukemia it was 0.204 µM; in the assay with EKVX NSCLC, 0.329 µM; in the assay with IGROV1 ovarian, 0.196 µM; with MDA-MB-435, 0.148 µM. For the same compound, the GI50 with NCI-H23 lung was 0.158 µM; in the assay with NCI/ADR-RES ovarian, 0.167 µM; in the assay with SF-539 CNS it was 0.145 µM; in the assay with SK-MEL-5 melanoma, 0.597 µM. For the same compound, the TGI in the assay on A498 renal is 2.19 µM; in the assay with BT-549 breast it was 2.58 µM; in the assay with CCRF-CEM leukemia, 11.8 µM; in the assay on EKVX NSCLC it was 2.24 µM; with IGROV1 ovarian it was 4.06 µM; in the assay with MDA-MB-435, 2.77 µM. For the same compound, the TGI in the assay on NCI-H23 lung came to 1.66 µM; in the assay on NCI/ADR-RES ovarian, 4.61 µM; in the assay with SF-539 CNS, 1.87 µM; in the assay with SK-MEL-5 melanoma it was 1.56 µM.
In the case of `CC(C)[C@@H](CS(=O)(=O)C(C)C)N1C(=O)[C@@](C)(CC(=O)O)C[C@H](c2cccc(Cl)c2)[C@H]1c1ccc(Cl)cc1`, the GI50 with A498 renal is 0.537 µM; in the assay on BT-549 breast, 12.9 µM; in the assay on CCRF-CEM leukemia, 18.2 µM; in the assay with EKVX NSCLC it was 11.9 µM; in the assay on IGROV1 ovarian it was 8.61 µM; in the assay with MDA-MB-435, 15.3 µM. The GI50 was 17 µM with NCI-H23 lung, 24.7 µM in the assay with NCI/ADR-RES ovarian, 14 µM with SF-539 CNS and 1.96 µM with SK-MEL-5 melanoma. Further, the TGI in the assay on A498 renal was 16.8 µM; in the assay with BT-549 breast, 40.3 µM; with CCRF-CEM leukemia, 66.1 µM; in the assay on EKVX NSCLC, > 100 µM; in the assay on IGROV1 ovarian, > 85.1 µM; in the assay on MDA-MB-435, 45.5 µM. Further, the TGI is 56.8 µM in the assay on NCI-H23 lung, > 100 µM with NCI/ADR-RES ovarian, 35.9 µM in the assay with SF-539 CNS and 17.2 µM in the assay on SK-MEL-5 melanoma.
`CCc1nc(N)nc(N)c1-c1ccc(Cl)c(N=NN(C)C)c1`: the TGI is > 100 µM in the assay with A498 renal; > 94.8 µM in the assay with BT-549 breast; > 73.2 µM in the assay with CCRF-CEM leukemia; > 95.2 µM in the assay on EKVX NSCLC; > 95.5 µM in the assay on IGROV1 ovarian; > 92.1 µM in the assay with MDA-MB-435. The TGI in the assay on NCI-H23 lung was > 100 µM; in the assay with NCI/ADR-RES ovarian it was > 100 µM; in the assay with SF-539 CNS, 56.9 µM; in the assay with SK-MEL-5 melanoma, 50.2 µM.
